# Results published in patent US11452781B2, “Method of preventing and treating type 1 diabetes, allograft rejection and lung fibrosis (by targeting the ATP/P2X7R axis)” (CHILDREN'S MEDICAL CENTER CORPORATION, priority 2013, dated 2022).
# Entries after “also recorded” stand apart in the source; their conditions may differ.
# Legend:
# [1] = tested on: splenocytes of islet-transplanted mice; experiment: Immune profiling of islet-transplanted mice (ELISPOT, flow cytometry, serum cytokines); format: in vivo, mouse; conditions: day 14
# Description: The effect of oATP treatment on the immune system of transplanted mice was tested. Splenocytes were collected in untreated or oATP-treated mice at day 14 after transplantation and challenged ex vivo in an ELISPOT assay with BALB/c irradiated splenocytes.
# Immune profiling of islet-transplanted oATP-treated and untreated mice was performed at day 14 after transplantation.
# [2] = tested on: naïve Th0 cells; experiment: Th1/Th17 generation and differentiation assay; format: cell-based, mouse; conditions: 100 μM oATP
# Description: Naïve Th0 cells were differentiated into Th1 or Th17 cells, and IFN-γ^+ and IL-17^+ cells were quantified by flow cytometry. Addition of 100 μM oATP inhibited the conversion of naïve Th0 cells into Th1 (FIGS. 6A-6B) and Th17 cells (FIGS. 6C-6D).
# To address the mechanisms underlying P2X7R targeting mediated inhibition of cardiac transplant rejection, the inventors analyzed the effect of P2X7R targeting on T-cell activation and Th1/Th17 differentiation in vitro. […] The effect of in vitro P2X7R targeting with oATP during CD4+ T-cell activation was tested. […] Second, in a T-cell proliferation assay, carboxyfluorescein diacetate succinimidyl ester-labeled naïve CD4+ T cells were stimulated for 96 hours with 0.5 μg/mL anti-CD3-Ig and anti-CD28-Ig, and treatment with 100 μM oATP diminished CD4+ T cell proliferation in comparison with controls. […] The inventors next tested the effect of in vitro P2X7R targeting during a Th1/Th17 generation and differentiation assay. […] P2X7R targeting with oATP inhibited Th0 conversion into both Th1 and Th17, as assessed by the percentage of IFN-γ+ and IL-17+ cells, respectively. […] In a Th1/Th17 generation assay, pmY-P2X7R CD4+ T cells seemed to display increased differentiation capacity in comparison with pmY-mock CD4+ T cells, as assessed by T-bet and ROR-γ expression.
# [3] = tested on: ABM CD4+ TCR-Tg T cells; experiment: Alloantigen-specific ABM CD4+ TCR-Tg T cells, bm12 hearts into C57BL/6 Rag-/- mice; format: in vivo, mouse
# Description: To address whether the inhibition of the effector T-cell compartment is related to reduced priming and expansion of alloreactive T cells or to their increased apoptosis, alloreactive-specific T cells were tracked in a transgenic model of cardiac transplantation. Bm12 hearts were transplanted into C57BL/6 Rag−/− mice, and 3×10^6 ABM CD4+ TCR-Tg T cells (specific for bm12 major histocompatibility complex class II antigens) were subsequently adoptively transferred into cardiac transplant recipients.
# [4] = tested on: OT1 splenocytes (CD8 T cells); experiment: OT1 splenocytes stimulated with OVA peptide, proliferation; format: cell-based, mouse; conditions: oATP 100 μM
# Description: FIG. 16A depicts a graph of CD8 activation levels. To better assess the response of CD8 T cells, splenocytes isolated from OT1 mice were stimulated with OVA peptide with and without (positive control) oATP (100 μM) and T cell proliferation determined. […] FIG. 16C depicts photomicroscopy images and a graph of cell growth and survival. Freshly isolated human peripheral blood mononuclear cells (PBMCs, 4×10^5/ml) were applied onto pre-seeded A549 cells (at ˜20% confluency). Cells were cultured in RPMI medium supplemented with interferon gamma (IFNγ) with or without oATP for 7 days. […]
# Outcome Measures—In vivo assessment of transplanted lung function was performed by thoracic CT scan imaging and measuring peak airway pressures (PawP) as previously described {Bizargity, #22}. ATP levels were measured from transplanted lung bronchoalveolar lavage fluid (BAL) by bioluminescent detection using Enliten ATP assay system (FF2000, Promega Corporation, Madison, Wis.). […] Immunohistochemistry was performed on frozen lung tissue sections utilizing CD4 and CD8 antibodies and isotype controls and assessed based on the average of 10 high power fields/lung allograft. […]
# To assess the inhibitory actions of oATP upon CD8 cells, a CD8 specific response was analyzed by utilizing OT1 splenocytes stimulated with OVA peptide. […]
# [5] = tested on: C57BL/6 mice transplanted with bm12 hearts; experiment: Chronic cardiac transplant rejection, bm12 donors to C57BL/6 recipients; format: in vivo, mouse
# Description: To evaluate the importance of P2X7R signaling and targeting in a clinically relevant setting, the effect of oATP treatment in a model of cardiac transplant chronic rejection (bm12 donors to C57BL/6 recipients) was tested. […] Cardiac allograft pathology was assessed 40 days after transplantation of bm12 hearts into C57BL/6 mice.
substance,measurement,setting,value
periodate-oxidized ATP [oATP],Th17 cells,[1],reduced; also recorded: Slight reductions
same,number of cells producing IL-4,[1],no effect
same,percentages of CD8+ T effector cells,[1],Slight reductions
same,percentages of peripheral CD4+ T effector cells,[1],No significant changes
same,percentages of regulatory T-cells,[1],No differences
same,serum IL-6,[1],reduced
same,conversion of naïve Th0 cells into Th1 (IFN-γ+ cells),[2],inhibited
same,conversion of naïve Th0 cells into Th17 (IL-17+ cells),[2],inhibited
same,TCR-Tg T-cell apoptosis,[3]; 4 days following adoptive transfer,without substantial differences
same,ABM CD4+ TCR-Tg T-cell proliferation (CFSE dilution),"[3]; mouse, in vivo",decrease
same,numbers of Teffs and Th17 cells within the Tg population,"[3]; mouse, in vivo",marked reduction
same,numbers of ABM CD4+ TCR-Tg T cells,[3]; seven days posttransplantation,reduced numbers
same,allo-specific CD8 activation/proliferation,[4],dramatic reduction; also recorded: significant reduction
same,"cardiac allograft pathology (infiltration, coronaropathy)",[5]; 40 days after transplantation,only mild cellular infiltration and the absence of coronaropathy
same,IFN-γ-producing cells (ELISPOT),"[5]; mouse, in vivo",reduced number
same,IL-4-producing cells (ELISPOT),"[5]; mouse, in vivo",increased number
